Assay results published in ChEMBL document CHEMBL1201862, “PubChem BioAssay data set” (2004).
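Following 48 hours of exposure in 96-well plates, responses at five concentrations were used to interpolate endpoints linearly. GI50 = concentration required for 50% inhibition of growth.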 Active and inactive are the calls of the source. No stated cut-off is given here; in the data, active = GI50 up to about 1.1 µM and inactive = higher.

Columns and labels:
Test in all cases: inhibition of tumour cell growth, NCI panel, 48 h
SNB-19 = tested on: SNB-19
NCI-H226 = tested on: NCI-H226
HCT-15 = tested on: HCT-15
A498 = tested on: A498
ACHN = tested on: ACHN
SK-MEL-28 = tested on: SK-MEL-28
MOLT-4 = tested on: MOLT-4
UO-31 = tested on: UO-31
Malme-3M = tested on: Malme-3M
SK-OV-3 = tested on: SK-OV-3
SK-MEL-5 = tested on: SK-MEL-5
SK-MEL-2 = tested on: SK-MEL-2
NCI-H460 = tested on: NCI-H460
SF-268 = tested on: SF-268
NCI-H23 = tested on: NCI-H23
HCT-116 = tested on: HCT-116
OVCAR-4 = tested on: OVCAR-4
CCRF-CEM = tested on: CCRF-CEM
BT-549 = tested on: BT-549
T47D = tested on: T47D

Compound | GI50 (SNB-19) | GI50 (NCI-H226) | GI50 (HCT-15) [µM] | GI50 (A498) | GI50 (ACHN) | GI50 (SK-MEL-28) | GI50 (MOLT-4) | GI50 (UO-31) | GI50 (Malme-3M) | GI50 (SK-OV-3) | GI50 (SK-MEL-5) | GI50 (SK-MEL-2) | GI50 (NCI-H460) | GI50 (SF-268) | GI50 (NCI-H23) | GI50 (HCT-116) | GI50 (OVCAR-4) | GI50 (CCRF-CEM) | GI50 (BT-549) | GI50 (T47D)
COc1ccc(C[C@@H](CO)NC2=C(C#N)CCC2)cc1 | > 100 µM (inactive) | 48.3 µM (inactive) | 40.4 | 31.9 µM (inactive) | 49.9 µM (inactive) | 74.1 µM (inactive) | 38.7 µM (inactive) | 46 µM (inactive) | 34.7 µM (inactive) | 49.1 µM (inactive) | 34.9 µM (inactive) | > 100 µM (inactive) | 64.7 µM (inactive) | 58.9 µM (inactive) | 52.4 µM (inactive) | 38.5 µM (inactive) | 32.1 µM (inactive) | 42.6 µM (inactive) | 30.4 µM (inactive) | –
COc1ccc2c(=O)c3c([nH]c2c1)OCC3=O | > 100 µM (inactive) | > 100 µM (inactive) | > 100 | > 100 µM (inactive) | > 100 µM (inactive) | > 100 µM (inactive) | > 100 µM (inactive) | > 100 µM (inactive) | – | > 100 µM (inactive) | > 100 µM (inactive) | > 100 µM (inactive) | > 100 µM (inactive) | > 100 µM (inactive) | > 100 µM (inactive) | > 100 µM (inactive) | > 100 µM (inactive) | > 100 µM (inactive) | > 100 µM (inactive) | > 100 µM (inactive)
COC(=O)C(C)(NC(=O)C(CC(=O)OC(C)(C)C)NC(=O)OC(C)(C)C)c1ccccc1 (configuration not stated) | > 100 µM (inactive) | > 100 µM (inactive) | > 100 | 54.3 µM (inactive) | > 100 µM (inactive) | > 100 µM (inactive) | > 100 µM (inactive) | 26.5 µM (inactive) | 40 µM (inactive) | > 100 µM (inactive) | 68.4 µM (inactive) | – | 85.7 µM (inactive) | 7.19 µM (inactive) | > 100 µM (inactive) | > 100 µM (inactive) | – | > 100 µM (inactive) | > 100 µM (inactive) | 35.4 µM (inactive)
COc1ccc(C2=C(Cl)C(=O)N(c3ccc(OC)cc3OC)C(=O)C2(Cl)Cl)cc1 | 56.6 µM (inactive) | 11.9 µM (inactive) | 14.2 | – | 15.7 µM (inactive) | 17 µM (inactive) | 5.07 µM (inactive) | 14.8 µM (inactive) | 14.6 µM (inactive) | 47.3 µM (inactive) | 14.9 µM (inactive) | 20.9 µM (inactive) | 45.2 µM (inactive) | 18.1 µM (inactive) | 15.4 µM (inactive) | 15.5 µM (inactive) | 14.5 µM (inactive) | – | 18.8 µM (inactive) | 11.8 µM (inactive)
COc1ccc(N[C@H](C[S+]([O-])c2ccc(C)cc2)C(F)(F)F)cc1 (some centres not stated) | > 100 µM (inactive) | > 100 µM (inactive) | > 100 | – | > 100 µM (inactive) | > 100 µM (inactive) | > 100 µM (inactive) | > 100 µM (inactive) | > 100 µM (inactive) | > 100 µM (inactive) | > 100 µM (inactive) | > 100 µM (inactive) | > 100 µM (inactive) | – | > 100 µM (inactive) | > 100 µM (inactive) | > 100 µM (inactive) | > 100 µM (inactive) | > 100 µM (inactive) | > 100 µM (inactive)
COC(NC(=O)Nc1ccccc1C)(C(F)(F)F)C(F)(F)F | 44.4 µM (inactive) | > 100 µM (inactive) | – | > 100 µM (inactive) | > 100 µM (inactive) | > 100 µM (inactive) | > 100 µM (inactive) | > 100 µM (inactive) | – | > 100 µM (inactive) | > 100 µM (inactive) | – | > 100 µM (inactive) | > 100 µM (inactive) | 81.5 µM (inactive) | > 100 µM (inactive) | > 100 µM (inactive) | 40.7 µM (inactive) | 94.4 µM (inactive) | 22.4 µM (inactive)
COC1(OC)C(/C(N)=C\O)=NC(C)(C)N1O | > 100 µM (inactive) | > 100 µM (inactive) | – | > 100 µM (inactive) | > 100 µM (inactive) | > 100 µM (inactive) | 66.5 µM (inactive) | > 100 µM (inactive) | > 100 µM (inactive) | – | 71.6 µM (inactive) | > 100 µM (inactive) | > 100 µM (inactive) | – | > 100 µM (inactive) | > 100 µM (inactive) | > 100 µM (inactive) | 37.1 µM (inactive) | > 100 µM (inactive) | –
O=c1oc2ccccc2n1CCN1CCCCC1 | > 100 µM (inactive) | > 100 µM (inactive) | > 100 | > 100 µM (inactive) | > 100 µM (inactive) | > 100 µM (inactive) | > 100 µM (inactive) | – | > 100 µM (inactive) | > 100 µM (inactive) | > 100 µM (inactive) | > 100 µM (inactive) | > 100 µM (inactive) | > 100 µM (inactive) | > 100 µM (inactive) | > 100 µM (inactive) | – | > 100 µM (inactive) | > 100 µM (inactive) | –
